Legend:
Assay type in all cases: cell-based, Human
VE-cadherin = test: Immunocytochemical analysis, VE-cadherin; conditions: NTS+L-NMMA, FIG. 6G
Procedure: Immunocytochemical analysis was performed using a known method. The cells cultured according to Example 2-1 were additionally cultured on coverslips (Thermo Fisher Scientific, Rochester, N.Y., USA) and treated with NTS (60 sec/ml) or a vehicle control.
The coverslips were then treated with polyclonal rabbit anti-LC3B, p-FAK, and VE-Cadherin (1:200; Cell Signaling Technology, Danvers, Mass., USA), incubated for 2 hours, washed with PBS, and then incubated with an Alexa 488-labeled antibody for 1 hour.
Thereafter, after being washed three times with PBS, the slides were stained with Hoechst 33258 (Molecular Probe), and phalloidin (1:50; Molecular Probes, R415) was added thereto for 15 minutes to counterstain nuclei and F-actin. The stained coverslips were washed with PBS, mounted with Vectashield (Vector Laboratories, Inc., Burlingame, Calif., USA), and then analyzed using EVOS FL Auto (Thermo Fisher).

MMP-2 = test: Gelatin zymogram analysis; conditions: L-NMMA with NTS, FIG. 6F
Procedure: Matrix metalloproteases were analyzed using a known gelatin zymography method. The cells according to Example 2-1 were cultured in a 6-well plate (Corning Scientific, Rochester, N.Y., USA) and treated with NTS (60 sec/ml) or a vehicle control. Thereafter, the supernatant (100 μl) of each sample was mixed with 1 μl of 100 mM 4-aminophenylmercuric acetate (Sigma-Aldrich), and the sample was incubated at 37° C. for 1 hour. After each sample was placed in a sample buffer (excluding 2-mercaptoethanol) for 10 minutes, the samples were electrophoresed on an a 8% polyacrylamide gel containing 1% gelatin.
The gel was incubated at room temperature for 60 minutes in a regeneration buffer, and then incubated in 100 ml of a development buffer at 37° C. with gentle shaking. Thereafter, the gel was stained with Coomassie Brilliant Blue for 3 hours. After destaining with 400 ml of a destaining solution (methanol, 100 ml of acetic acid, 500 ml of distilled water), images were obtained using an image analyzer.

HUVEC tube formation = test: Tube formation analysis on Matrigel; conditions: L-NMMA (10 μM) with NTS, FIG. 6C
Procedure: HUVEC cells were trypsinized and then seeded onto a 96-well plate (2×10^4/well) pre-coated with 40 μl (10 mg/ml) of growth factor-reduced Matrigel (BD Biosciences, Billerica, Mass.) in an EBM2 medium.
After incubation at 37° C. for 30 minutes, 1 hour, 3 hours, and 6 hours, viable cells were detected by staining with Calcein AM (Trevigen, Gaithersburg, Md.), and then a capillary-like structure was imaged using EVOS FL Auto (ThermoFisher). Data in the images was quantified with National Institutes of Health (NIH) ImageJ 1.41q software.

eNOS (S1177) = test: Western blot, phosphorylated eNOS; conditions: FIG. 6A
Procedure: Western blot was performed using a known method. Cells were lysed in a RIPA buffer (Sigma Aldrich) including 150 mM NaCl, 1.0% Nonidet-P 40, 0.5% sodium deoxycholate, 0.1% sodium dodecyl sulfate, 50 mM Tri (pH 8.0), a protease inhibitor cocktail and PhoSTOP (Roche Molecular Biochemicals, Basel, Switzerland).
A primary antibody used in the present experiment was purchased from Cell Signaling (Danvers, Mass., USA) and VE-cadherin, p-LKB1, and LKB1 were purchased from Santa Cruz (Cambridge, UK). A secondary antibody (anti-rabbit IgG or anti-mouse IgG, 1:2000) was purchased from Cell Signaling Technology.
Data in the images was quantified with National Institutes of Health (NIH) ImageJ 1.41q software.

[1] = system: intracellular nitric oxide (NO) in HUVECs; test: Intracellular NO production analysis (DAF-FM probe); conditions: L-NMMA (10 μM) with NTS, FIG. 6B
Procedure: Nitric oxide (NO) levels were confirmed by measuring fluorescence changes in 4-amino-5-methylamino-2′,7′-difluorofluorescein diacetate (DAF-FMDA, Thermo Fisher, D23844, Eugene, Oreg., USA) due to oxidation, respectively. Cells were cultured with reagents according to the manufacturer's instructions. Changes in DAF-FM fluorescence were measured by flow cytometry (BD Biosciences) and a fluorescence microscope (EVOS FL Auto, Thermo Fisher) after 24 hours. NG-methyl-L-arginine acetate salt (L-NMMA, Sigma, M7033) was used to suppress the production of nitric oxide (NO).

SMILES: CC(=O)O.CNC(=N)NCCC[C@H](N)C(=O)O [L-NMMA, NG-methyl-L-arginine acetate salt]
- NTS-induced reduction of VE-cadherin expression (VE-cadherin): significantly attenuated
- NTS-activated MMP2 (MMP-2): significantly attenuated
- tubular network formed by NTS (HUVEC tube formation): significantly disrupted
- p-eNOS phosphorylation by NTS (eNOS (S1177); L-NMMA (10 μM) with NTS): significantly reduced
- phosphorylation of eNOS upregulated by NTS (eNOS (S1177); L-NMMA, 1 mM): significantly attenuated
- intracellular nitric oxide by NTS [1]: significantly reduced

Reference: patent US20230142077A1, “COMPOSITION FOR PROMOTING ANGIOGENESIS USING LIQUID TYPE PLASMA AND METHOD FOR PROMOTING ANGIOGENESIS USING SAME” (AJOU UNIVERSITY INDUSTRY-ACADEMIC COOPERATION FOUNDATION, priority 2021, published 2023)
